What was measured:
[1] = system: human whole blood (leukotriene and prostaglandin levels); assay: Eicosanoid production from human whole blood; assay type: cell-based; conditions: human whole blood stimulated with calcium ionophore A23187 and arachidonic acid; ELISA
Procedure: Human whole blood is collected in 10 ml heparin tubes (Vacutainer, Becton Dickenson). Collected blood is pooled and 80 μL is dispensed into each well of 384 well polypropylene plates. A PlateMate is used to add 2 μL of compound solution in DMSO to the 80 μL of blood in the polypropylene plates. The plate, with blood and compound added, is incubated at room temperature for 10 minutes. 2 μL of a calcimycin (800 ng/ml) (A23187 C-7522, Sigma) and arachidonic acid (30 μM) (NU-Chek PREP, INC. S-1133) solution in 60% ethanol is then added to the blood using a Micromultidrop. The plates are then incubated at 37° C. in a shallow water bath for 15 minutes. Plates are then spun at 800 g for 10 minutes at 4° C. Supernatant is removed and assayed by Elisa (Caymen Chemical).
Eicosanoid Production from Human Whole Blood:
Human whole blood was collected from healthy or asthmatic human donors in 10 ml heparinized tubes (Vacutainer tubes; Becton Dickenson, Franklin Lakes, N.J.). Collected blood was pooled and 80 μL was dispensed into each well of 384 well polypropylene plates using a Multi-prop™ 384-well dispenser (Titertek, Huntsville, Ala.). Varying concentrations of compounds were dissolved in DMSO then 2 μL/well was added to the blood using a PlateMate Plus™ automated pipetting station (Matrix Technologies, Hudson, N.H.). The compounds were preincubated with the blood at room temperature for 10 minutes followed by stimulation with 40 μM calcium ionophore (A23187, Sigma Chemical Co, St. Louis, Mo., Cat. # C-7522) and 30 μM arachidonic acid (S-1133, NU-Chek PREP, Inc., Elysian, MN, Cat. # S-1133) dissolved in 60% ethanol. After 15 min incubation at 37° C. in a shallow water bath, the blood was centrifuged at 8009 for 10 minutes at 4° C., the supernatants collected, and leukotriene and prostaglandin levels measured by ELISA according to the manufacturer's directions (Cayman Chemical Company, Ann Arbor, Mich.). The assay was performed at a final concentration of 2.5% DMSO.

recombinant human 5-LOX = target: T1, recombinant human 5-LOX (Homo sapiens, UniProt P09917); assay: Fluorescence Intensity 5-LOX Enzyme Assay; assay type: biochemical; conditions: crude lysate of recombinant human 5-LOX; highest inhibitor concentration tested typically 25 μM
T1 sequence (P09917 1-674): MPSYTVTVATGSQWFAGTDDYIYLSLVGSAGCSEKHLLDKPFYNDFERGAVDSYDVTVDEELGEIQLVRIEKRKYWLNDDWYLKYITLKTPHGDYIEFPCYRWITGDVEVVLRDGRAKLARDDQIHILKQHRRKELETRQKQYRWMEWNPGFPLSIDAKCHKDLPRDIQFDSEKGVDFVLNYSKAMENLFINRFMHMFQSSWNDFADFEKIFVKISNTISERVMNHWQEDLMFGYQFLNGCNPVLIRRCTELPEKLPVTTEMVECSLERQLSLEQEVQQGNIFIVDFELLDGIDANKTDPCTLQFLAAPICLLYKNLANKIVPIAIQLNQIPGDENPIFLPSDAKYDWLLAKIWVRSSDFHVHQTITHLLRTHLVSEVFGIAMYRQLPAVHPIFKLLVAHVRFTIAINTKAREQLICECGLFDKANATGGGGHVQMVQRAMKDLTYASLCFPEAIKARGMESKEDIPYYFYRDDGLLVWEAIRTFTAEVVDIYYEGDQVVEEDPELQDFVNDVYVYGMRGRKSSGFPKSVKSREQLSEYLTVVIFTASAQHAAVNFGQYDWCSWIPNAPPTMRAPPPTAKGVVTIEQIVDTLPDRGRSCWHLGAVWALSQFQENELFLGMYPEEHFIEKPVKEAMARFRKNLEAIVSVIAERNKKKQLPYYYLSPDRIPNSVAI
Excerpt: Bio Data Assays for Allergic and Non Allergic Airways Diseases Fluorescence Intensity 5-LOX Enzyme Assay
The enzyme assay is based on the oxidation of the non-fluorescent compound 2′7′-dichlorodihydrofluorescein diacetate (H2DCFDA) to the fluorescent 2′,7′-dichlorofluorescein by 5-LOX in an arachidonic acid-dependent reaction. Ester cleavage of the acetate groups of the substrate H2DCFDA must occur prior to oxidation. This is achieved through use of a crude cell lysate preparation of recombinant human 5-LOX. The enzyme assay ([…]) contained 50 mM Tris (pH 7.5), 2 mM CaCl2, 2 mM EDTA, 3 μM arachidonic acid (Nu-Chek Prep; #S-1133), 10 μM ATP, 10 μM H2DCFDA (Invitrogen; #D399), inhibitor (varying concentration) and recombinant human 5-LOX enzyme (1.25 μL crude lysate per well).
Inhibitors (dissolved in DMSO) were plated into a 384-well assay plate (Corning #3654) at 1 μL followed by a 20 μL addition of a solution containing 5-LO enzyme and H2DCFDA. Enzyme and H2DCFDA were pre-incubated for 5 min to allow time for acetate group cleavage of the dye prior to addition to the assay plate. After a 10 min pre-incubation of inhibitor and enzyme/dye mix, the assay was initiated by the addition of a substrate solution containing arachidonic acid and ATP. The enzymatic reaction was run for 20 min at room temperature and terminated by the addition of 40 μL of acetonitrile. Assay plates were read in a plate reader using standard wavelengths for fluorescein. IC50s of inhibitors were calculated using a 4-parameter fit using 7 inhibitor concentrations in duplicate with 3-fold serial dilutions. Controls on each plate included no inhibitor (zero percent effect) and 25 μM C J-13610 (one hundred percent effect). The highest inhibitor concentration tested was typically 25 μM. The final DMSO concentration in the assay was 2.5%.

| IC50 [1] [nM] | IC50 (recombinant human 5-LOX) [nM] | Compound |
| --- | --- | --- |
| 565 | 324 | CCNC(=O)C1(c2cccc(Sc3ccc(-c4ccnn4C)cc3)c2)CCOCC1 [Example 86, N-ethyl-4-(3-{[4-(1-methyl-1H-pyrazol-5-yl)phenyl]thio}phenyl)tetrahydro-2H-pyran-4-carboxamide] |
| 42.2 | 38.9 | C[C@H]1C[C@@](C#N)(c2ccc(F)c(Sc3ccc(-c4ccnn4C)cc3)c2F)CCO1 [28(2), (2S,4R)-4-(2,4-difluoro-3-(4-(1-methyl-1H-pyrazol-5-yl)phenylthio)phenyl)-2-methyl-tetrahydro-2H-pyran-4-carbonitrile] |
| 1160 | 447 | C[C@H]1C[C@@](C#N)(c2cccc([S+]([O-])c3ccc(-c4ccnn4C)cc3)c2F)CCO1 (stereo partly drawn) [Example 54, (2S,4R)-4-(2-fluoro-3-(4-(1-methyl-1H-pyrazol-5-yl)phenylsulfinyl)phenyl)-2-methyl-tetrahydro-2H-pyran-4-carbonitrile] |
| 1490 | 2160 | Cn1nccc1C(=O)c1ccc(Sc2cccc(C3(C#N)CCOCC3)c2)cc1 [Example 62, 4-[3-({4-[(1-methyl-1H-pyrazol-5-yl)carbonyl]phenyl}thio)phenyl]tetrahydro-2H-pyran-4-carbonitrile] |
| 866 | 138 | COc1ccc(C2(C(N)=O)CCOCC2)cc1Sc1ccc(-c2ccnn2C)cc1 [Example 44, 4-(4-methoxy-3-(4-(1-methyl-1H-pyrazol-5-yl)phenylthio)phenyl)-tetrahydro-2H-pyran-4-carboxamide] |
| 1400 | 608 | NC(=O)C1(c2cccc(Sc3ccc(-c4[nH]ncc4Br)cc3)c2)CCOCC1 [Example 60, 4-(3-{[4-(4-bromo-1H-pyrazol-5-yl)phenyl]thio}phenyl)tetrahydro-2H-pyran-4-carboxamide] |
| 1010 | 1100 | Cn1nccc1-c1ccc(Sc2cccc(C3(C(N)=O)CCOCC3)c2Cl)cc1 [Example 87, 4-(2-chloro-3-{[4-(1-methyl-1H-pyrazol-5-yl)phenyl]thio}phenyl)tetrahydro-2H-pyran-4-carboxamide] |
| 640 | 469 | Cn1nccc1C(=O)c1ccc(Sc2cccc(C3(C(N)=O)CCOCC3)c2)cc1C#N [Example 38, 4-[3-({3-cyano-4-[(1-methyl-1H-pyrazol-5-yl)carbonyl]phenyl}thio)phenyl]tetrahydro-2H-pyran-4-carboxamide] |
| 394 | 60.7 | Cn1nccc1C(=O)c1ccc(Sc2cccc(C3(C(N)=O)CCOCC3)c2)cc1C(F)(F)F [Example 37, 4-[3-({4-[(1-methyl-1H-pyrazol-5-yl)carbonyl]-3-(trifluoromethyl)phenyl}thio)phenyl]tetrahydro-2H-pyran-4-carboxamide] |
| 6360 | 109 | CNC(=O)C1(c2cccc(Sc3ccc(C(=O)c4ccnn4C)cc3)c2)CCOCC1 [Example 72, N-methyl-4-[3-({4-[(1-methyl-1H-pyrazol-5-yl)carbonyl]phenyl}thio)phenyl]tetrahydro-2H-pyran-4-carboxamide] |
| 769 | 313 | Cn1nccc1Cc1ccc(Sc2cccc(C3(C(N)=O)CCOCC3)c2)cc1 [Example 35, 4-[3-({4-[(1-methyl-1H-pyrazol-5-yl)methyl]phenyl}thio)phenyl]tetrahydro-2H-pyran-4-carboxamide] |
| 256 | 126 | Cn1nccc1-c1ccc(Sc2cccc(C3(C(N)=O)CCOCC3)c2F)cc1 [17(7), 4-(2-fluoro-3-{[4-(1-methyl-1H-pyrazol-5-yl)phenyl]thio}-phenyl)tetrahydro-2H-pyran-4-carboxamide] |
| 2480 | 803 | Cn1nccc1C(=O)c1ccc(Sc2cccc(C3(C(N)=O)CCOCC3)c2)c(Cl)c1 [Example 68, 4-[3-({2-chloro-4-[(1-methyl-1H-pyrazol-5-yl)carbonyl]phenyl}thio)phenyl]tetrahydro-2H-pyran-4-carboxamide] |
